Data set [1] concerns S. cerevisiae C10 resistant mutants (CDC60 editing domain mutations). The experiment in a line: MIC (NCCLS M27), spontaneous and EMS induced C10 resistant mutants. The class given is cell-based, Saccharomyces cerevisiae. As for the experimental part: (§1) The haploid Saccharomyces cerevisiae strain ATCC 201388 was used in the selection of C10 resistant mutants. Spontaneous and EMS-induced resistant mutants were isolated from YPD agar plates containing 4×, 8×, 16×MIC of C10. All minimal inhibitory concentrations (MIC) were determined using NCCLS protocol M27 with the exception of using YPD or synthetic defined media. All yeast and molecular genetic manipulations were essentially performed as described by Guthrie C., et al., Methods in Enzymology, 350: Part B, (2002).
Resistant mutants appeared after 2 d incubation at 30° C. Frequency of resistance was determined by dividing the number of resistant mutants by the total number of cells plated as determined by plating dilutions of the overnight culture on YPD plates.
A 2.5 mL of the overnight culture, which was grown in YPD media, was centrifuged at 700×g for 5 minutes. The cell pellet was resuspended in 10 mL 50 mM potassium phosphate buffer, pH 7.0. The cell suspension was centrifuged again and the cell pellet was resuspended in phosphate buffer to obtain a cell density of 5×10^7 cells/mL as determined by counting the cells using a Petroff Hausser Counting Chamber (Horsham, Pa. USA). The cell suspension was shaken with 300 μL of EMS (Alfa Aesar, Ward Hill, Mass., USA) for 30 min. at 30° C. The mutagenesis was stopped by adding 10% (w/v) sodium thiosulfate (Sigma-Aldrich, St. Louis, Mo., USA), and the cells were pelleted by centrifugation at 700×g for 5 min. and resuspended in 1 mL sterile H2O. This was repeated once more before the cells were plated on YPD agar plates containing 1.6 μg/mL of C10.
(§2) The minimal inhibitory concentration (MIC) was essentially performed following the NCCLS guidelines outlined in the M27 protocol with the exception of using YPD or synthetic defined media (SDM).

Data set [2] relates to Saccharomyces cerevisiae strain ATCC 201388. Description: MIC (NCCLS M27, YPD or synthetic defined media), haploid parental strain. The class given is cell-based. The procedure:
as §1, §2

The format of data set [3] is in vitro ADME, human. As for the experimental part: C10, 5-fluoro-1,3-dihydro-1-phenyl-2,1-benzoxaborole, C1, and 5-fluoro-1,3-dihydro-1-(3-hydroxymethylphenyl)-2,1-benzoxaborole, formulated at 10% w/v in ethanol, were tested. A single aliquot (10 μl) of each formulation was dosed to the top of human nail plates using the nail penetration procedure described below, and allowed to stand for 3-days. The dosed area was washed, and then the cotton ball bed supporting the nail and the nail samples were collected at the end of the incubation period, stored at 4° C. and analyzed for drug using LC/MS/MS.
Details of the nail incubation have been previously described^9, 10. […] The supporting cotton ball under the nail was wetted by normal saline providing moisture for the nail plate, and the degree of hydration was monitored and controlled during the experiment. […]
LC/MS/MS (API3000, Applied Biosystems, Foster City, Calif.) was used to quantitate the amounts of non-radiolabeled oxaboroles, C10, 5-fluoro-1,3-dihydro-1-phenyl-2,1-benzoxaborole, C1, and 5-fluoro-1,3-dihydro-1-(3-hydroxymethylphenyl)-2,1-benzoxaborole in samples from the nail penetration studies. […] After centrifugation, the filtrate from the cotton ball samples was transferred to autosampler vials and analyzed by LC/MS/MS. […]

Data set [4] deals with S. cerevisiae ATCC201388 bearing pRS425 or CDC60 on pRS425. The experiment in a line: MIC with over-expression of wild type CDC60. Particulars: Saccharomyces cerevisiae. The class given is cell-based, Saccharomyces cerevisiae.
Source text: as §2
A 4.0 kb BamH I-Sal I DNA fragment containing the entire CDC60 open reading frame (ORF) and 700 bp of upstream sequence was amplified using KOD DNA polymerase, S. cerevisiae genomic DNA (Novagen, Madison, Wis., USA), and the primers GAGGGATCCGGTTAGTTTTAGTTCGCGAGTGACCTG and GAGGTCGACGATTTCTGGTTGCTGTTTATTGATCTT (Operon, Alameda, Calif., USA). This DNA fragment was then cloned into the […] multi-copy plasmid pRS425, and transformed into S. cerevisiae ATCC201388 (Gietz, R D et al., Methods in Enzymology 305: 87-96 (2002)).

Setting [5] is: Saccharomyces cerevisiae, Table 2, C10 resistant mutant (C).
[6] abbreviates: Saccharomyces cerevisiae, Table 2, C10 resistant mutant (G).
Setting [7] is: Saccharomyces cerevisiae, Table 2, C10 resistant mutant (H).
[8] abbreviates: Saccharomyces cerevisiae, ATCC201388, Table 2, ATCC201388, read-out: MIC.
The mark [9] stands for this setting: Table 2, C10 resistant mutant (C).
The mark [10] stands for this setting: Table 2, C10 resistant mutant (G).
[11] abbreviates: Table 2, C10 resistant mutant (H).

Converted amounts (≈) assume the structure as drawn. Read-outs that look alike come from different tables or passages of the source.

On to `C[C@@H]1[C@H](O)[C@@H](C)/C=C/C=C/C=C/C=C/C=C/C=C/C=C/[C@H](O[C@@H]2O[C@H](C)[C@@H](O)[C@H](N)[C@@H]2O)C[C@@H]2O[C@](O)(C[C@@H](O)C[C@@H](O)[C@H](O)CC[C@@H](O)C[C@@H](O)CC(=O)O[C@H]1C)C[C@H](O)[C@H]2C(=O)O` [Amphotericin B], for which the “resistance of C10 resistant mutants to other antifungals, in words” value (“resistance of C10 resistant mutants” for short) in data set [1] is “not resistant”. For the same compound, the minimum inhibitory concentration (MIC) in data set [2] (Table 2, ATCC201388) was 0.125 µg/mL (≈ 0.135 µM).

As for `O=S(=O)(c1ccccc1)N(c1ccc2c(c1)COB2O)S(=O)(=O)c1ccccc1` [C91, N-(1-hydroxy-1,3-dihydrobenzo[c][1,2]oxaborol-5-yl)-N-(phenylsulfonyl)benzenesulfonamide], the melting point was in the range of 142 to 152 °C.

As for `OB1OCc2ccc(Sc3ccc(C(F)(F)F)cc3)cc21` [C92, 6-(4-(trifluoromethyl)phenylthio)benzo[c][1,2]oxaborol-1(3H)-ol], the melting point is 111 to 113 °C.

Consider `[O-][S+](c1ccc(C(F)(F)F)cc1)c1ccc2c(c1)B(O)OC2` (stereo not drawn) [C93, 6-(4-(trifluoromethyl)phenylsulfinyl)benzo[c][1,2]oxaborol-1(3H)-ol], for which the melting point is 79 to 88 °C.

On to `CSc1ccc(Sc2ccc3c(c2)B(O)OC3)cc1` [C94, 6-(4-(methylthio)phenylthio)benzo[c][1,2]oxaborol-1(3H)-ol], for which the melting point was in the range of 117 to 120 °C.

In turn, `Cc1ccc(Sc2ccc3c(c2)B(O)OC3)cc1` [C95, 6-(p-tolylthio)benzo[c][1,2]oxaborol-1(3H)-ol] yielded a melting point of 139 to 144 °C.

`N#Cc1cccc(COc2ccc3c(c2)COB3O)c1` [C96, 3-((1-hydroxy-1,3-dihydrobenzo[c][1,2]oxaborol-5-yloxy)methyl)benzonitrile]: the melting point lay within 147 to 150 °C.

Regarding `C/C=C/C/C=C/CCC(=O)[C@H]1O[C@H]1C(N)=O` [Cerulenin], the “resistance of C10 resistant mutants” value in data set [1] was “not resistant”. Moreover, the MIC in data set [1] (Saccharomyces cerevisiae, Table 1, mutant (A), CDC60 N415D) is 0.5 µg/mL (≈ 2.24 µM); in data set [1] (Saccharomyces cerevisiae, Table 1, mutant (B), CDC60 R316I), 0.5 µg/mL (≈ 2.24 µM); in data set [1] (Saccharomyces cerevisiae, Table 1, mutant (C), CDC60 C326F) it was 0.5 µg/mL (≈ 2.24 µM); in data set [1] (Saccharomyces cerevisiae, Table 1, mutant (D), CDC60 G405V), 0.5 µg/mL (≈ 2.24 µM); in data set [1] (Saccharomyces cerevisiae, Table 1, mutant (E), CDC60 C326R) it was 0.5 µg/mL (≈ 2.24 µM); in data set [1] (Saccharomyces cerevisiae, Table 1, mutant (F), CDC60 D487G), 0.5 µg/mL (≈ 2.24 µM). Also, the MIC in data set [1] (Saccharomyces cerevisiae, Table 1, mutant (G), CDC60 L315V) is 0.5 µg/mL (≈ 2.24 µM); in data set [1] (Saccharomyces cerevisiae, Table 1, mutant (H), CDC60 T314M), 0.5 µg/mL (≈ 2.24 µM); in data set [1] (Saccharomyces cerevisiae, Table 1, mutant (I), CDC60 S416L) it was 1 µg/mL (≈ 4.48 µM); in data set [1] (Saccharomyces cerevisiae, Table 1, mutant (J), CDC60 D487N) it was 1 µg/mL (≈ 4.48 µM); in data set [1] (Saccharomyces cerevisiae, Table 1, mutant (K), CDC60 T319I), 1 µg/mL (≈ 4.48 µM); in data set [1] (setting [5]) it was 0.5 µg/mL (≈ 2.24 µM). The minimum inhibitory concentration (MIC) in data set [1] (setting [6]) turned out to be 0.5 µg/mL (≈ 2.24 µM); in data set [1] (setting [7]) it was 0.5 µg/mL (≈ 2.24 µM); in data set [2] (Saccharomyces cerevisiae, ATCC201388, Table 1, haploid strain ATCC201388, read-out: MIC) it was 1 µg/mL (≈ 4.48 µM); in data set [2] (setting [8]) it was 0.5 µg/mL (≈ 2.24 µM).

Turning to `Fc1ccc2c(c1)COB2c1ccccc1` [Compound 3, 5-fluoro-1,3-dihydro-1-phenyl-2,1-benzoxaborole], in data set [3], the “penetration of the nail plate, in words” value was “penetrates the nail plate poorly”.

Regarding `C[C@@H]1C[C@@H]([C@H](O)CC2CC(=O)NC(=O)C2)C(=O)[C@@H](C)C1` [Cyclohexamide], the “resistance of C10 resistant mutants” value in data set [1] was “not resistant”. The “MIC” value in data set [1] (setting [9]) was below 0.06 µg/mL; in data set [1] (setting [10]) it was below 0.06 µg/mL; in data set [1] (setting [11]) it was below 0.06 µg/mL; in data set [2] (Table 2, ATCC201388) it was below 0.06 µg/mL.

With `OC(Cn1cncn1)(Cn1cncn1)c1ccc(F)cc1F` [Fluconazole, reference compound], the minimum inhibitory concentration (MIC) in data set [4] (ATCC201388, CDC60 on pRS425 (20 copies)) came out at 2 µg/mL (≈ 6.53 µM); in data set [4] (ATCC201388, pRS425 Plasmid control), 2 µg/mL (≈ 6.53 µM).

Turning to `CCC(C)n1ncn(-c2ccc(N3CCN(c4ccc(OCC5COC(Cn6cncn6)(c6ccc(Cl)cc6Cl)O5)cc4)CC3)cc2)c1=O` (stereo not drawn) [Itraconazole], the MIC in data set [1] (setting [5]), in data set [1] (setting [6]), in data set [1] (setting [7]) and in data set [2] (setting [8]) was 0.125 µg/mL (≈ 0.177 µM) throughout.

As to `C[C@@H]([C@H](N)C(=O)N[C@H](C(=O)O)[C@H]1O[C@@H](n2ccc(=O)[nH]c2=O)[C@H](O)[C@@H]1O)[C@H](O)c1ccc(O)cn1` [Nikkomycin Z], the “resistance of C10 resistant mutants” value in data set [1] was “not resistant”. Moreover, the minimal inhibitory concentration (MIC) stood at 64 µg/mL (≈ 129 µM) in data set [1] (setting [9]); 64 µg/mL (≈ 129 µM) in data set [1] (setting [10]); 64 µg/mL (≈ 129 µM) in data set [1] (setting [11]); 64 µg/mL (≈ 129 µM) in data set [2] (Table 2, ATCC201388).

For `CN(C/C=C/C#CC(C)(C)C)Cc1cccc2ccccc12` [Terbinafine], in data set [1], the “resistance of C10 resistant mutants” value is given as “not resistant”. Also, the MIC in data set [1] (setting [5]), in data set [1] (setting [6]), in data set [1] (setting [7]) and in data set [2] (setting [8]) was 4 µg/mL (≈ 13.7 µM) each time.

For Aculeacin A, in data set [1], the “resistance of C10 resistant mutants” value is on record as “not resistant”. Also, the “MIC” value worked out at 4 µg/mL in data set [1] (setting [9]); 4 µg/mL in data set [1] (setting [10]); 4 µg/mL in data set [1] (setting [11]); 4 µg/mL in data set [2] (Table 2, ATCC201388).

Tunicamycin: in data set [1], the “resistance of C10 resistant mutants” value is given as “not resistant”. The “MIC” value in data set [1] (setting [9]) was 8 µg/mL; in data set [1] (setting [10]), 8 µg/mL; in data set [1] (setting [11]), 8 µg/mL; in data set [2] (Table 2, ATCC201388) it was 8 µg/mL.

A word on the MIC: it is the lowest concentration found to suppress growth. One may read the melting point as the temperature, or range, at which the solid turns liquid.
